# Legend:
# [1] = tested on: waterhemp; test: Test C preemergence; assay type: in vivo, Amaranthus rudis
# Summary of the method: (§1)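 Pre- and postemergence greenhouse screen; vehicle was a non-phytotoxic solvent mix with surfactant. Preemergence: treatment applied right after sowing into loam and sand. Postemergence: treated at 1–4 leaves. Visual rating at 13–15 days, 100 = complete control.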
# [2] = tested on: johnsongrass; test: Test C postemergence; assay type: in vivo, Sorghum halepense
# Summary of the method: as §1
# [3] = tested on: velvetleaf; test: Test C preemergence; assay type: in vivo, Abutilon theophrasti
# Summary of the method: as §1
# [4] = tested on: ducksalad; test: Test B flood; assay type: in vivo, Heteranthera limosa; settings: 250 g ai/ha, visual rating on 0 to 100 scale (0 no effect, 100 complete control), 13 to 15 days
# Summary of the method: (§2)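 Two-leaf-stage plants, pots flooded (3 cm above soil) and treated through the water, which stayed at that depth. After 13–15 days in greenhouse conditions, visual assessment versus controls: 0 is no effect, 100 complete control, dash means no result.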
# [5] = tested on: kochia; test: Test C postemergence; assay type: in vivo, Kochia scoparia
# Summary of the method: as §1
# [6] = tested on: rice; test: Test B flood; assay type: in vivo, Oryza sativa; settings: 250 g ai/ha, visual rating on 0 to 100 scale (0 no effect, 100 complete control), 13 to 15 days
# Summary of the method: as §2
# [7] = tested on: lambsquarters; test: Test C preemergence; assay type: in vivo, Chenopodium album
# Summary of the method: as §1
# [8] = tested on: barnyardgrass; test: Test A preemergence; assay type: in vivo, Echinochloa crus-galli; settings: preemergence
# Summary of the method: (§3)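 Growth medium: loam soil blended with sand. Preemergence treatment used a directed soil spray right after planting; postemergence treatment targeted seedlings at one to two leaves (2–10 cm height). Response was judged by eye relative to untreated plants about 10 days later on a 0–100 control scale.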
# [9] = tested on: nutsedge, yellow; test: Test C postemergence; assay type: in vivo, Cyperus esculentus
# Summary of the method: as §1
# [10] = tested on: soybean; test: Test C postemergence; assay type: in vivo, Glycine max; settings: postemergence
# Summary of the method: as §1
# [11] = tested on: crabgrass, large; test: Test A postemergence; assay type: in vivo, Digitaria sanguinalis; settings: Postemergence
# Summary of the method: as §3
# [12] = tested on: nutsedge, yellow; test: Test C preemergence; assay type: in vivo, Cyperus esculentus
# Summary of the method: as §1
# [13] = tested on: morningglory; test: Test C preemergence; assay type: in vivo, Ipomoea coccinea
# Summary of the method: as §1
# [14] = Preemergence, rate head not shown (block before 16 g ai/ha), scale 0 to 100
# [15] = preemergence, 62 g ai/ha, scale 0 to 100 (0 no effect, 100 complete control), 13 to 15 days
# [16] = preemergence, 125 g ai/ha, 13 to 15 days, scale 0 to 100, 0 = no effect, 100 = complete control
# [17] = preemergence, 250 g ai/ha, scale 0 to 100, 0 is no effect, 100 is complete control
# [18] = Postemergence, 31 g ai/ha, visually evaluated after 13 to 15 days
# [19] = postemergence, 62 g ai/ha, scale 0 to 100
# [20] = postemergence, 250 g ai/ha, scale 0 to 100 (0 no effect, 100 complete control)
# [21] = postemergence, 125 g ai/ha, scale 0 to 100, 0 no effect, 100 complete control
compound,measurement,setting,value
CCc1cc(C(=O)NCC(F)(F)F)nn1Cc1ccnc(Br)c1 [Compound 224],"Plant response rating, Waterhemp",[1]; [14],100
same,Waterhemp plant response rating,[1]; [15],100
same,"Plant response rating, Waterhemp",[1]; [16],100
same,Waterhemp plant response rating,[1]; [17],100
same,"Plant response rating (scale of 0 to 100 where 0 is no effect and 100 is complete control), Johnsongrass",[2]; [18],20
same,Johnsongrass plant response rating,[2]; [19],5
same,"Plant response rating, Johnsongrass",[2]; [20],5
same,"Plant response rating, Johnsongrass",[2]; [21],5
same,"Plant response rating, Velvetleaf",[3]; [14],40
same,Velvetleaf plant response rating,[3]; [15],65
same,"Plant response rating, Velvetleaf",[3]; [16],100
same,Velvetleaf plant response rating,[3]; [17],100
same,"Plant response rating, Ducksalad",[4],75
same,"Plant response rating (scale of 0 to 100 where 0 is no effect and 100 is complete control), Kochia",[5]; [18],80
same,Kochia plant response rating,[5]; [19],85
same,"Plant response rating, Kochia",[5]; [20],90
same,"Plant response rating, Kochia",[5]; [21],90
same,"Plant response rating, Rice",[6],20
same,"Plant response rating, Lambsquarters",[7]; [14],100
same,Lambsquarters plant response rating,[7]; [15],100
same,"Plant response rating, Lambsquarters",[7]; [16],100
same,Lambsquarters plant response rating,[7]; [17],100
same,"Barnyardgrass plant response rating (0 to 100 scale, 0 is no effect, 100 is complete control)","[8]; 125 g ai/ha, visual injury approx. 10 days after treatment",90
same,Barnyardgrass plant response rating,"[8]; 500 g ai/ha, visual injury after approx. 10 days, 0 to 100 scale (0 no effect, 100 complete control)",100
same,"Plant response rating (scale of 0 to 100 where 0 is no effect and 100 is complete control), Nutsedge, Yellow",[9]; [18],0
same,"Nutsedge, Yellow plant response rating",[9]; [19],0
same,"Plant response rating, Nutsedge, Yellow",[9]; [20],5
same,"Plant response rating, Nutsedge, Yellow",[9]; [21],5
same,"Plant response rating, Soybean","[10]; 250 g ai/ha, scale 0 to 100 (0 no effect, 100 complete control)",60
same,Soybean plant response rating,"[10]; 125 g ai/ha, scale 0 to 100, 0 no effect, 100 complete control",70
same,"Crabgrass, Large plant response rating","[11]; 125 g ai/ha, 0 to 100 scale, 0 no effect, 100 complete control",90
same,"Crabgrass, Large plant response rating","[11]; 500 g ai/ha, 0 to 100 scale (0 no effect, 100 complete control)",100
same,"Plant response rating, Nutsedge, Yellow",[12]; [14],85
same,"Nutsedge, Yellow plant response rating",[12]; [15],80
same,"Plant response rating, Nutsedge, Yellow",[12]; [16],70
same,"Nutsedge, Yellow plant response rating",[12]; [17],90
same,"Plant response rating, Morningglory",[13]; [14],5
same,Morningglory plant response rating,[13]; [15],10
same,"Plant response rating, Morningglory",[13]; [16],40
same,Morningglory plant response rating,[13]; [17],100

# Reference: US20150105252A1, “SUBSTITUTED PYRAZOLES AS HERBICIDES” (E I DU PONT DE NEMOURS AND COMPANY, priority 2013, published 2015)
